The target in the assay is T1, Recombinant human EP300 containing the bromodomain (EP300-BD (1040-1161)) (Homo sapiens, UniProt Q09472).
T1 construct: Recombinant human EP300 bromodomain (EP300-BD (1040-1161)); made in house; host or cells: E. coli BL21-CodonPlus (DE3), modified pET vector
T1 sequence (Q09472 1040-1161): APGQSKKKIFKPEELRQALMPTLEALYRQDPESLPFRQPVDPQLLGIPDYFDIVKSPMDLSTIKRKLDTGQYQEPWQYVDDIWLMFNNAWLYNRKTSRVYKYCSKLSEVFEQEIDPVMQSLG
Put plainly: EP300 Alphascreen binding assay. In a few lines:
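Displacement of a biotinylated acetyl-K56 histone H3 peptide from the N-His bromodomain construct (1040-1161) measured by AlphaScreen proximity, beads at 7.5 μg/ml final, read 60 min after addition. Protein, peptide and compound first incubated 1 h at room temperature, pH 7.5 HEPES buffer; IC50 by four-parameter logistic fit.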

Structures are written as SMILES.

Take `Cc1noc(C)c1-c1cnc2c(c1)c(-c1cnn(C(C)(C)C(=O)O)c1)cn2C(c1ccccn1)C1CCCC1` (stereo not drawn) [P-0035, 2-(4-(1-(cyclopentyl(pyridin-2-yl)methyl)-5-(3,5-dimethylisoxazol-4-yl)-1H-pyrrolo[2,3-b]pyridin-3-yl)-1H-pyrazol-1-yl)-2-methylpropanoic acid]: the IC50 was in the range of 0.1 to 1000 nM. Next, `Cc1noc(C)c1-c1cnc2c(c1)c(-c1cnn(CC(=O)O)c1)cn2C(c1ccccn1)C1CCCC1` (stereo not drawn) [P-0036, 2-(4-(1-(cyclopentyl(pyridin-2-yl)methyl)-5-(3,5-dimethylisoxazol-4-yl)-1H-pyrrolo[2,3-b]pyridin-3-yl)-1H-pyrazol-1-yl)acetic acid]: 0.1 to 1000 nM; `Cc1noc(C)c1-c1cnc2c(c1)c(-c1cnn(CC(C)(C)O)c1)cn2C(c1ccccn1)C1CCCC1` (stereo not drawn) [P-0037, 1-(4-(1-(cyclopentyl(pyridin-2-yl)methyl)-5-(3,5-dimethylisoxazol-4-yl)-1H-pyrrolo[2,3-b]pyridin-3-yl)-1H-pyrazol-1-yl)-2-methylpropan-2-ol]: 1000 to 8000 nM.

As for `Cc1noc(C)c1-c1cnc2c(c1)c(-c1ccc(C(=O)O)c(Cl)c1)cn2C(c1ccccn1)C1CCCC1` (stereo not drawn) [P-0038, 2-chloro-4-(1-(cyclopentyl(pyridin-2-yl)methyl)-5-(3,5-dimethylisoxazol-4-yl)-1H-pyrrolo[2,3-b]pyridin-3-yl)benzoic acid], the IC50 lay within 0.1 to 1000 nM. Take `COC(=O)c1cc(-c2cn(C(c3ccccn3)C3CCCC3)c3ncc(-c4c(C)noc4C)cc23)ccn1` (stereo not drawn) [P-0040, methyl 4-(1-(cyclopentyl(pyridin-2-yl)methyl)-5-(3,5-dimethylisoxazol-4-yl)-1H-pyrrolo[2,3-b]pyridin-3-yl)picolinate]: the IC50 lay in the range of 0.1 to 1000 nM. Next, `Cc1noc(C)c1-c1cnc2c(c1)c(-c1ccnc(C(=O)O)c1)cn2C(C1CC1)C1CC1` [P-0041, 4-(1-(dicyclopropylmethyl)-5-(3,5-dimethylisoxazol-4-yl)-1H-pyrrolo[2,3-b]pyridin-3-yl)picolinic acid]: 0.1 to 1000 nM. Next, `Cc1noc(C)c1-c1cnc2c(c1)c(-c1ccnc(C(=O)O)c1)cn2Cc1ccccc1` [P-0042, 4-(1-benzyl-5-(3,5-dimethylisoxazol-4-yl)-1H-pyrrolo[2,3-b]pyridin-3-yl)picolinic acid]: 0.1 to 1000 nM; `Cc1noc(C)c1-c1cnc2c(c1)c(-c1ccnc(C(=O)O)c1)cn2C(c1ccccn1)C1CCC1` (stereo not drawn) [P-0043, 4-(1-(cyclobutyl(pyridin-2-yl)methyl)-5-(3,5-dimethylisoxazol-4-yl)-1H-pyrrolo[2,3-b]pyridin-3-yl)picolinic acid]: 0.1 to 1000 nM.

As for `Cc1noc(C)c1-c1cnc2c(c1)c(-c1ccnc(C(=O)O)c1)cn2Cc1ccccn1` [P-0044, 4-(5-(3,5-dimethylisoxazol-4-yl)-1-(pyridin-2-ylmethyl)-1H-pyrrolo[2,3-b]pyridin-3-yl)picolinic acid], the half-inhibitory concentration (IC50) fell in the range of 0.1 to 1000 nM. Next, `Cc1noc(C)c1-c1cnc2c(c1)c(-c1ccnc(C(=O)O)c1)cn2CC1CC1` [P-0045, 4-(1-(cyclopropylmethyl)-5-(3,5-dimethylisoxazol-4-yl)-1H-pyrrolo[2,3-b]pyridin-3-yl)picolinic acid]: 0.1 to 1000 nM; `COC(=O)c1cc(-c2cn(C(c3ccccn3)C3CCC3)c3ncc(-c4c(C)noc4C)cc23)ccn1` (stereo not drawn) [P-0046, methyl 4-(1-(cyclobutyl(pyridin-2-yl)methyl)-5-(3,5-dimethylisoxazol-4-yl)-1H-pyrrolo[2,3-b]pyridin-3-yl)picolinate]: 0.1 to 1000 nM; `COc1cc(C(=O)O)ccc1-c1cn([C@@H](C)c2ccccn2)c2ncc(-c3c(C)noc3C)cc12` [P-0047, (S)-4-(5-(3,5-dimethylisoxazol-4-yl)-1-(1-(pyridin-2-yl)ethyl)-1H-pyrrolo[2,3-b]pyridin-3-yl)-3-methoxybenzoic acid]: 0.1 to 1000 nM. Next, `Cc1noc(C)c1-c1cnc2c(c1)c(-c1cccc(C(=O)O)c1)cn2Cc1ccccc1` [P-0048, 3-(1-benzyl-5-(3,5-dimethylisoxazol-4-yl)-1H-pyrrolo[2,3-b]pyridin-3-yl)benzoic acid]: 0.1 to 1000 nM; `Cc1noc(C)c1-c1cnc2c(c1)c(-c1cccc(C(=O)O)c1)cn2Cc1ccccn1` [P-0049, 3-(5-(3,5-dimethylisoxazol-4-yl)-1-(pyridin-2-ylmethyl)-1H-pyrrolo[2,3-b]pyridin-3-yl)benzoic acid]: 0.1 to 1000 nM; `Cc1noc(C)c1-c1cnc2c(c1)c(-c1cccc(C(=O)O)c1)cn2CC1CC1` [P-0050, 3-(1-(cyclopropylmethyl)-5-(3,5-dimethylisoxazol-4-yl)-1H-pyrrolo[2,3-b]pyridin-3-yl)benzoic acid]: 0.1 to 1000 nM. Next, `Cc1noc(C)c1-c1cnc2c(c1)c(C#CC(C)(C)C(=O)O)cn2Cc1ccccc1` [P-0051, 4-(1-benzyl-5-(3,5-dimethylisoxazol-4-yl)-1H-pyrrolo[2,3-b]pyridin-3-yl)-2,2-dimethylbut-3-ynoic acid]: 0.1 to 1000 nM. `COC(=O)c1cc(-n2cc(Cc3ccccc3)c3ncc(-c4c(C)noc4C)cc32)ccn1` [P-0052, methyl 4-(3-benzyl-6-(3,5-dimethylisoxazol-4-yl)-1H-pyrrolo[3,2-b]pyridin-1-yl)picolinate]: the IC50 lay within 0.1 to 1000 nM.

In the case of `Cc1noc(C)c1-c1cnc2c(Cc3ccccc3)cn(-c3ccnc(C(=O)O)c3)c2c1` [P-0053, 4-(3-benzyl-6-(3,5-dimethylisoxazol-4-yl)-1H-pyrrolo[3,2-b]pyridin-1-yl)picolinic acid], the concentration for half-maximal inhibition (IC50) lay within 0.1 to 1000 nM. Next, `Cc1noc(C)c1-c1cnc2c(C(=O)c3ccccc3)cn(-c3ccnc(C(=O)O)c3)c2c1` [P-0054, 4-(3-benzoyl-6-(3,5-dimethylisoxazol-4-yl)-1H-pyrrolo[3,2-b]pyridin-1-yl)picolinic acid]: 0.1 to 1000 nM; `Cc1noc(C)c1-c1cnc2c(c1)c(-c1ccc(C(=O)O)cc1OC(F)(F)F)cn2-c1ccc(C2CC2)nc1` [P-0388, 4-(1-(6-cyclopropylpyridin-3-yl)-5-(3,5-dimethylisoxazol-4-yl)-1H-pyrrolo[2,3-b]pyridin-3-yl)-3-(trifluoromethoxy)benzoic acid]: 0.1 to 1000 nM. For `Cc1noc(C)c1-c1cnc2c(c1)c(-c1ccc(C(=O)O)cc1OC(F)(F)F)cn2C1CCC(C#N)C1` (stereo not drawn) [P-0389, 4-(1-(3-cyanocyclopentyl)-5-(3,5-dimethylisoxazol-4-yl)-1H-pyrrolo[2,3-b]pyridin-3-yl)-3-(trifluoromethoxy)benzoic acid], the IC50 fell in the range of 0.1 to 1000 nM. Next, `Cc1noc(C)c1-c1cnc2c(c1)c(-c1c(Cl)cc(C(=O)O)cc1OCC(F)F)cn2-c1cnc(C2CC2)nc1` [P-0390, 3-chloro-4-(1-(2-cyclopropylpyrimidin-5-yl)-5-(3,5-dimethylisoxazol-4-yl)-1H-pyrrolo[2,3-b]pyridin-3-yl)-5-(2,2-difluoroethoxy)benzoic acid]: 0.1 to 1000 nM; `Cc1noc(C)c1-c1cnc2c(c1)c(-c1c(Cl)cc(C(=O)O)cc1OC1CCC1)cn2-c1cnc(C2CC2)nc1` [P-0391, 3-chloro-5-cyclobutoxy-4-(1-(2-cyclopropylpyrimidin-5-yl)-5-(3,5-dimethylisoxazol-4-yl)-1H-pyrrolo[2,3-b]pyridin-3-yl)benzoic acid]: 0.1 to 1000 nM; `COc1ncc(-n2cc(-c3ccc(C(=O)O)cc3OC(F)(F)F)c3cc(-c4c(C)noc4C)cnc32)cn1` [P-0392, 4-(5-(3,5-dimethylisoxazol-4-yl)-1-(2-methoxypyrimidin-5-yl)-1H-pyrrolo[2,3-b]pyridin-3-yl)-3-(trifluoromethoxy)benzoic acid]: 0.1 to 1000 nM. As for `Cc1noc(C)c1-c1cnc2c(c1)c(-c1c(Cl)cc(C(=O)O)cc1OC(C)C)cn2-c1cnc(C2CC2)nc1` [P-0393, 3-chloro-4-(1-(2-cyclopropylpyrimidin-5-yl)-5-(3,5-dimethylisoxazol-4-yl)-1H-pyrrolo[2,3-b]pyridin-3-yl)-5-isopropoxybenzoic acid], the IC50 fell in the range of 0.1 to 1000 nM. Next, `Cc1noc(C)c1-c1cnc2c(c1)c(-c1c(F)cc(C(=O)O)cc1OC1CC1)cn2C(C1CC1)C1CC1` [P-0394, 3-cyclopropoxy-4-(1-(dicyclopropylmethyl)-5-(3,5-dimethylisoxazol-4-yl)-1H-pyrrolo[2,3-b]pyridin-3-yl)-5-fluorobenzoic acid]: 0.1 to 1000 nM; `Cc1noc(C)c1-c1cnc2c(c1)c(-c1c(Cl)cc(C(=O)O)cc1OC(F)(F)F)cn2-c1ncccc1C#N` [P-0395, 3-chloro-4-(1-(3-cyanopyridin-2-yl)-5-(3,5-dimethylisoxazol-4-yl)-1H-pyrrolo[2,3-b]pyridin-3-yl)-5-(trifluoromethoxy)benzoic acid]: 0.1 to 1000 nM; `Cc1noc(C)c1-c1cnc2c(c1)c(-c1c(Cl)cc(C(=O)O)cc1OC1CCC1)cn2-c1ncccc1C#N` [P-0396, 3-chloro-4-(1-(3-cyanopyridin-2-yl)-5-(3,5-dimethylisoxazol-4-yl)-1H-pyrrolo[2,3-b]pyridin-3-yl)-5-cyclobutoxybenzoic acid]: 0.1 to 1000 nM. Next, `Cc1noc(C)c1-c1cnc2c(c1)c(-c1c(F)cc(C(=O)O)cc1OC1CC1)cn2C1CCOCC1` [P-0397, 3-cyclopropoxy-4-(5-(3,5-dimethylisoxazol-4-yl)-1-(tetrahydro-2H-pyran-4-yl)-1H-pyrrolo[2,3-b]pyridin-3-yl)-5-fluorobenzoic acid]: 0.1 to 1000 nM. Next, `CCOc1nc(C(=O)O)c(Cl)cc1-c1cn(C2CCOCC2)c2ncc(-c3c(C)noc3C)cc12` [P-0398, 3-chloro-5-(5-(3,5-dimethylisoxazol-4-yl)-1-(tetrahydro-2H-pyran-4-yl)-1H-pyrrolo[2,3-b]pyridin-3-yl)-6-ethoxypicolinic acid]: 0.1 to 1000 nM.

(Values after US11446287B2, “Compounds and methods for EP300 or CBP modulation and indications therefor” (Opna Immuno-Oncology SA, priority 2019, dated 2022).)
